Tests used:
Type in all cases: cell-based
[1] = tested on: splenocytes of HLA-A24 (A*2402) transgenic mice; parameters: key to A24: average IFN-γ spots forming cells per million splenocytes: — represents no positive ELISpot response
[2] = tested on: splenocytes of HLA-B7 (B*0702) transgenic mice; parameters: key to B7: average IFN-γ spots forming cells per million splenocytes: — represents no positive ELISpot response
[3] = tested on: splenocytes of HLA-DR2 (DRB1*1501) transgenic mice; parameters: key to DR2: average IFN-γ spots forming cells per million splenocytes: — represents no positive ELISpot response
[4] = tested on: splenocytes of HLA-DR3 (DRB1*0301) transgenic mice; parameters: key to DR3: average IFN-γ spots forming cells per million splenocytes: — represents no positive ELISpot response
[5] = tested on: splenocytes of HLA-DR4 (DRB1*0401) transgenic mice; parameters: key: — represents no positive ELISpot response

Sequence | A24: average IFN-γ spots forming cells per million splenocytes [1] | B7: average IFN-γ spots forming cells per million splenocytes [2] | DR2: average IFN-γ spots forming cells per million splenocytes [3] | DR3: average IFN-γ spots forming cells per million splenocytes [4] | DR3: lowest concentration of peptide giving positive ELISpot response in peptide titration [4] | DR4: average IFN-γ spots forming cells per million splenocytes [5] | DR2: lowest concentration of peptide giving positive ELISpot response in peptide titration [3] | A24: lowest concentration of peptide giving positive ELISpot response in peptide titration [1] | B7: lowest concentration of peptide giving positive ELISpot response in peptide titration [2]
LLRHFQKDAKVLFLNWG | — | — | — | 444 ± 14(0.1) IFN-γ spots forming cells per million splenocytes | 444 ± 14(0.1) μg/ml | — |  |  | 
LPDMTPSTEMSMRGVRV | — | — | — | 324 ± 28(0.1) IFN-γ spots forming cells per million splenocytes | 324 ± 28(0.1) μg/ml | — |  |  | 
LQLFIKDYRYTYRCHRG | — | — | 61 ± 2(1) IFN-γ spots forming cells per million splenocytes | 230 ± 23(0.1) IFN-γ spots forming cells per million splenocytes | 230 ± 23(0.1) μg/ml | 97 ± 30(0.1) IFN-γ spots forming cells per million splenocytes | 61 ± 2(1) μg/ml |  | 
LTHIMIWHSNLNDTTYQ | — | — | 238 ± 59(0.1) IFN-γ spots forming cells per million splenocytes | — |  | — | 238 ± 59(0.1) μg/ml |  | 
MELPSFGVSGVNESADM | — | — | — | — |  | 274 ± 15(0.1) IFN-γ spots forming cells per million splenocytes |  |  | 
MGMIGILPDMTPSTEMS | — | — | — | — |  | 238 ± 5(0.1) IFN-γ spots forming cells per million splenocytes |  |  | 
MWEINGPESVLINTYQW | 289 ± 16 IFN-γ spots forming cells per million splenocytes | — | — | — |  | — |  | (0.1) μg/ml | 
NDLGPATAQMALQLFIK | 92 ± 2(1) IFN-γ spots forming cells per million splenocytes | — | — | — |  | — |  | 92 ± 2(1) μg/ml | 
NPSLRMKWMMAMKYPIT | — | — | — | — |  | 166 ± 3(0.1) IFN-γ spots forming cells per million splenocytes |  |  | 
PESVLINTYQWIIRNWE | 226 ± 5 IFN-γ spots forming cells per million splenocytes | — | — | — |  | — |  | (0.1) μg/ml | 
PVHFRNQVKIRRRVDIN | — | — | — | — |  | 311 ± 37(0.1) IFN-γ spots forming cells per million splenocytes |  |  | 
RATAILRKATRRLIQLI | — | — | — | — |  | 54 ± 2(0.1) IFN-γ spots forming cells per million splenocytes |  |  | 
RFLRVRDQRGNVLLSPE | — | 184 ± 3 IFN-γ spots forming cells per million splenocytes | — | — |  | — |  |  | (0.1) μg/ml
RFYRTCKLLGINMSKKK | — | — | 231 ± 73(1) IFN-γ spots forming cells per million splenocytes | — |  | — | 231 ± 73(1) μg/ml |  | 
RMIGGIGRFYIQMCTEL | 45 ± 5 IFN-γ spots forming cells per million splenocytes | — | — | — |  | — |  | (0.1) μg/ml | 
RMQFSSLTVNVRGSGMR | — | — | 104 ± 16(0.1) IFN-γ spots forming cells per million splenocytes | — |  | — | 104 ± 16(0.1) μg/ml |  | 
RQTYDWTLNRNQPAATA | — | — | — | 78 ± 0(0.1) IFN-γ spots forming cells per million splenocytes | 78 ± 0(0.1) μg/ml | — |  |  | 
SHGTGTGYTMDTVNRTH | — | — | — | — |  | 106 ± 1(0.1) IFN-γ spots forming cells per million splenocytes |  |  | 
SRPMFLYVRTNGTSKIK | — | — | — | — |  | 114 ± 24(0.1) IFN-γ spots forming cells per million splenocytes |  |  | 

Reference: US20120294879A1, “CONSENSUS SEQUENCE FOR INFLUENZA A VIRUS” (priority 2009, published 2012)
